The results in this text go back to PubChem BioAssay (NCI).

Usually GI50 stands for the concentration giving 50% growth inhibition. In general, TGI refers to the concentration giving total growth inhibition. A high value points to less potent growth arrest.

Common to all, as to assay: DTP human tumour cell line panel, 48 h
Assay [1] deals with HCC-2998 colon.
The test system of assay [2] is HCT-15 colon.
Assay [3] deals with M14 melanoma.
In assay [4] the test system is NCI-H23 lung.
Assay [5] relates to NCI-H522 lung.
The subject of assay [6] is SF-268 CNS.
Assay [7] has as its system SF-539 CNS.
Assay [8] deals with SN12C renal.
The test system of assay [9] is SW-620 colon.
Assay [10] deals with U251 CNS.

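Tested at 5 concentrations; 48 h exposure; 96-well plates; endpoints linearly interpolated, else capped at highest concentration. The concentration for 50% growth inhibition is given as GI50. At the TGI there is no net growth.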 Where only a bound is given, the exact number is not on record here.

With `CC(=O)Oc1ccc(/C=N/NC(N)=S)nc1`, the GI50 was 8.96 µM in assay [1]; 22.5 µM in assay [2]; 2.72 µM in assay [3]; 2.39 µM in assay [4]; 2.61 µM in assay [5]; 1.91 µM in assay [6]. The GI50 in assay [7] is 2.36 µM; in assay [8] it was 4.06 µM; in [9] it was 5.59 µM; in assay [10], 4.17 µM. The TGI in assay [1] was > 100 µM; in assay [2], > 100 µM; in assay [3], 8.72 µM; in assay [4], > 100 µM; in [5] it was > 100 µM; in [6], 8.59 µM. Further, the TGI in assay [7], in assay [8], in [9] and in [10] was > 100 µM throughout.
On to `CC1CCC2N(C1)CC1C3(O)CC45OC6(O)C(O)CCC4(C)C6CCC5C3(O)CC(O)C1(O)C2(C)O` (stereo not drawn), for which the TGI in assay [1], in [2], in assay [3], in assay [4], in assay [5] and in [6] was > 100 µM in each case. The TGI in assay [7], in [8], in assay [9] and in assay [10] was > 100 µM each time.
Consider `O=c1c2ccccc2oc2ccc(OCCCCCCN3CCCCCC3)cc12`, for which the GI50 in assay [1] was 2.97 µM; in assay [2] it was 2.09 µM; in assay [3] it was 1.88 µM; in [4], 3.1 µM; in assay [5], 2.82 µM; in [6], 4.35 µM. Besides, the GI50 in [7] is 1.76 µM; in [8], 4.07 µM; in assay [9] it was 3.11 µM; in [10], 3.28 µM. Also, the concentration for total growth inhibition (TGI) in assay [1] amounted to 11.6 µM; in [2], 11.1 µM; in assay [3], 3.69 µM; in assay [4], 11.7 µM; in assay [5], 11.5 µM; in assay [6], 20 µM. The TGI was 3.4 µM in assay [7], 16.2 µM in [8], 11 µM in assay [9] and 11.5 µM in assay [10].
Take `O=C1C=CC2(C=C1)C[C@H](NC(=O)C(F)(F)F)C(=O)O2`: the TGI in assay [1] is > 100 µM; in assay [2], > 100 µM; in [3] it was > 100 µM; in assay [4] it was 69.4 µM; in assay [5] it was 32.1 µM; in assay [6], > 100 µM. For the same compound, the TGI in assay [7], in assay [8] and in [10] was > 100 µM in each case.
Regarding `CCOc1cc(-c2ccc[nH]2)[nH]c1/C=C1\N=C(C)C(C(=O)OC)=C1C`, the concentration for 50% growth inhibition (GI50) was 0.0442 µM in assay [1]; 0.0148 µM in assay [2]; 0.0348 µM in [3]; 0.0876 µM in assay [4]; 0.0561 µM in assay [5]; 0.0526 µM in assay [6]. The GI50 was 0.059 µM in [7], 0.0444 µM in assay [8], 0.0321 µM in assay [9] and 0.0319 µM in assay [10]. Moreover, the concentration for total growth inhibition (TGI) was 1.34 µM in [1]; 0.0705 µM in [2]; 1.18 µM in assay [3]; 1.92 µM in assay [4]; 0.318 µM in assay [5]; 1.81 µM in assay [6]. The TGI in [7] worked out at 0.968 µM; in [8], 1.72 µM; in assay [9], 1.55 µM; in assay [10] it was 0.814 µM.
For `COc1cnc2cc(C(=O)O)c3ccccc3c2c1`, the TGI in assay [1], in assay [2], in assay [3], in assay [4], in assay [5] and in assay [6] was > 100 µM each time. In addition, the TGI in [7], in assay [8], in assay [9] and in assay [10] was > 100 µM each time.
As for `CC1(C)CC[C@]2(C(N)=O)CC[C@]3(C)C(=CC[C@@H]4[C@@]5(C)C/C(=C/c6ccncc6)C(=O)C(C)(C)[C@@H]5CC[C@]43C)[C@@H]2C1`, the GI50 in assay [1] was 1.87 µM; in [2], 1.69 µM; in assay [3], 2.05 µM; in [4], 2.89 µM; in assay [5], 2.28 µM; in assay [6], 2.15 µM. For the same compound, the GI50 in assay [7] is 1.81 µM; in [8] it was 1.82 µM; in assay [9] it was 2.04 µM; in assay [10] it was 1.69 µM. The TGI in assay [1] amounted to 3.45 µM; in assay [2], 3.46 µM; in assay [3] it was 4.62 µM; in assay [4] it was 9.62 µM; in [5], 7.76 µM; in assay [6], 5.49 µM. Further, the TGI was 3.34 µM in [7], 3.67 µM in assay [8], 4.62 µM in [9] and 3.27 µM in assay [10].
Consider `C[N+](C)(C)CC1CCCC(C[N+](C)(C)C)C1O` (stereo not drawn), for which the TGI in assay [1], in [2], in assay [3], in assay [4], in assay [5] and in assay [6] was > 100 µM throughout. Further, the total growth inhibition concentration (TGI) in [7], in [8], in [9] and in assay [10] was > 100 µM throughout.
For the compound `CC(=O)C1C(=O)N(C(C)C)C[C@@H]2CCC(=O)C[C@H]12` (stereo partly drawn), the TGI in assay [1], in assay [2], in assay [3], in assay [4], in [5] and in assay [6] was > 100 µM in each case. Also, the TGI in [7], in assay [8], in assay [9] and in assay [10] was > 100 µM throughout.
For the compound `Cc1cc(Cl)cc2c1NC(=O)C2=O` (tested in a mixture with another compound), the TGI in assay [1] was > 100 µM; in assay [2], > 100 µM; in assay [3], > 100 µM; in assay [4], > 100 µM; in [5] it was 86 µM; in [6] it was > 100 µM. The TGI in assay [7], in assay [8], in assay [9] and in assay [10] was > 100 µM each time.
Consider `O=C(Nc1cccc(NC(=O)c2cc(=O)c3ccccc3o2)n1)c1cc(=O)c2ccccc2o1`, for which the TGI in assay [1] was > 100 µM; in assay [2], > 100 µM; in assay [3], > 100 µM; in [4] it was > 100 µM; in assay [5], 48.3 µM; in assay [6], > 100 µM. Further, the TGI in assay [7], in assay [9] and in [10] was > 100 µM each time.
